According to US5646173A, “Tricyclic pyrrole derivatives useful as 5-HT selective agents” (Hoffmann-La Roche Inc., priority 1993, dated 1997):
Where a name gives a salt, the structure may show the parent alone. Read-outs that look alike come from different tables or passages of the source.

How the values were obtained:
5HT2C receptor [1] = target: T1, 5HT2C receptor (Rattus norvegicus, UniProt P08909); experiment: [3H]-5-HT binding assay (Method II b); parameters: expressed in transfected cells; host or cells: clonal 5-HT1C cell line
T1 sequence (P08909 33-460): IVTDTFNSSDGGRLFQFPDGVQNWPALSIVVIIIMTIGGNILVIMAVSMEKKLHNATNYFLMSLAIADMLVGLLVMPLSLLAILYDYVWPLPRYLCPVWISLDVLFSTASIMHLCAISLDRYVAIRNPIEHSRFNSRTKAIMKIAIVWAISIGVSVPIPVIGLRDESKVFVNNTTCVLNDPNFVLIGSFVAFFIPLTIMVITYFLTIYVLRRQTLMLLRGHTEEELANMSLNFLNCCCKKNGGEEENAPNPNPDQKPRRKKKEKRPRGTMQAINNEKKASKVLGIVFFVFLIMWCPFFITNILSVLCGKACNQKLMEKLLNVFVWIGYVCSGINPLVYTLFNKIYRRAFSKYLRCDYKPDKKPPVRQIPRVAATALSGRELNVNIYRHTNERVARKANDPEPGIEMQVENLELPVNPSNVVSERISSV
Description: b) For the binding to the 5HT2C receptor in accordance with the [3H]-5-HT binding assay according to the method of S. J. Peroutka et al., Brain Research 584, 191-196 (1992).
(§1) The pki values (pki =-log^10 Ki) of the test substances are given. […] [L] is the concentration of ligand and the KD value is the dissociation constant of the ligand.

5HT2A receptor [2] = target: T2, 5HT2A receptor (Homo sapiens, UniProt P28223); experiment: [3H]-DOB binding assay (Method II c)
T2 construct: expressed in transfected cells; host or cells: transfected mammalian cells (inferred from the cited method)
T2 sequence (P28223 whole entry): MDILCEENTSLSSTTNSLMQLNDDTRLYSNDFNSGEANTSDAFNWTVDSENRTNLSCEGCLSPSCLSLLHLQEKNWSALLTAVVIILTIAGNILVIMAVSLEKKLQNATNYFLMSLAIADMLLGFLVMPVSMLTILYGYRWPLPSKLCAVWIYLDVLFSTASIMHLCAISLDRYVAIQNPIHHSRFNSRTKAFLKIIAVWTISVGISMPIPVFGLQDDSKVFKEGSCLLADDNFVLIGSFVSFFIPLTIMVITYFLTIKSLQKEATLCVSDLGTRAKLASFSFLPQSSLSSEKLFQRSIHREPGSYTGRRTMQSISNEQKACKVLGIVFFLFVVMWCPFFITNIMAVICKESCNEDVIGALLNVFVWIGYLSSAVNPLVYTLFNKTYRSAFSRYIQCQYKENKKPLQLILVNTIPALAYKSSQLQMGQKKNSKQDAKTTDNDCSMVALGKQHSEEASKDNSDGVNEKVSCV
Description: c) For the binding to the 5HT2A receptor in accordance with the [3H]-DOB binding assay according to the method of T. Branchek et al., Molecular Pharmacology 38, 604-609 (1990).
as §1

human-5HT1A receptors = target: T3, human-5HT1A receptors (Homo sapiens, UniProt P08908); experiment: [3H]-5-HT displacement on recombinant human 5HT1A receptors expressed in 3T3 cells of mice (Method II a); type: binding
T3 construct: expressed in transfected cells; host or cells: mouse 3T3 cells
T3 sequence (P08908 1-422): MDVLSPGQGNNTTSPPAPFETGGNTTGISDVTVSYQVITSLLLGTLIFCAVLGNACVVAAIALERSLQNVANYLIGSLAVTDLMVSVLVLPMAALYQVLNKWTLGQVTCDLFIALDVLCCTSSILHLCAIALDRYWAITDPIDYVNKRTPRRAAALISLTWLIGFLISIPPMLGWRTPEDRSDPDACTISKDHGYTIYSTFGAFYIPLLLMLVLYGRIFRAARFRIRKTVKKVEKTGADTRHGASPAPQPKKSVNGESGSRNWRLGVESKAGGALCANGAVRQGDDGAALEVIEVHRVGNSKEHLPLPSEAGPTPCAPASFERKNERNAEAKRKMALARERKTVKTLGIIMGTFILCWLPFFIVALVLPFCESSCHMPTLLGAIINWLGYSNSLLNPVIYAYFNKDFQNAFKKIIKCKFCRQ
Description: [L] is the concentration of ligand and the KD value is the dissociation constant of the ligand.

5HT2C receptor [3] = target: T1, 5HT2C receptor; experiment: Penile erection (rats); type: in vivo; parameters: from tissue; host or cells: living rat; settings: s.c., number of penile erections within 45 minutes following administration
Method: It has been shown that penile erection is dependent on the stimulation of the 5HT2C receptor (see Berendsen & Broekkamp, Eur. J. Pharmacol, 135, 179-184 (1987)).
The number of penile erections was determined within 45 minutes following administration of the test substance to the animal.

5HT1A receptor = experiment: 3H-8-OH-DPAT binding assay (Method I a); settings: read-out: IC50, test method a
Method: The binding of the compounds of formula I in accordance with the invention to serotonin receptors was determined in vitro by standard methods. The preparations were investigated in accordance with the assays given hereinafter: […]

5HT2A receptor [4] = target: T4, 5HT2A receptor (Rattus norvegicus, UniProt P14842); experiment: biochemical; type: binding
T4 construct: from tissue; host or cells: rat frontal cortex membranes (inferred from the cited method)
T4 sequence (P14842 whole entry): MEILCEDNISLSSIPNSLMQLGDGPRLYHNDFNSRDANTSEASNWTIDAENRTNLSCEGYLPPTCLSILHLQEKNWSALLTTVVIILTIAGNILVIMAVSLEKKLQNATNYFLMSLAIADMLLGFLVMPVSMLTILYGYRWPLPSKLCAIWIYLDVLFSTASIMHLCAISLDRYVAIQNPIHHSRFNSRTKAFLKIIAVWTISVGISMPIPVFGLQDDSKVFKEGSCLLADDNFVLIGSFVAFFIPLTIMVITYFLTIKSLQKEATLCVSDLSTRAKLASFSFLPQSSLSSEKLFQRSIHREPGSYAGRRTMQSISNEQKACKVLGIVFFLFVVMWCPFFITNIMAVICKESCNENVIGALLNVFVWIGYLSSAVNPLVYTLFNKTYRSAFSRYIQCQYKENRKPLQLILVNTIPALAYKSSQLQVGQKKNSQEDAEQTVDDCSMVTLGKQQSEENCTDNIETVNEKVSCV
Method: (§2) The binding of the compounds of formula I in accordance with the invention to serotonin receptors was determined in vitro by standard methods. The preparations were investigated in accordance with the assays given hereinafter:
c) For the binding to the 5HT2A receptor in accordance with the ^3 H-ketanserine binding assay according to the method of J. E. Leysen, Molecular Pharmacology 21, 301-304 (1981).

5HT2C receptor [5] = target: T5, 5HT2C receptor (Sus scrofa, UniProt K7GSR7); experiment: 3H-mesulergine binding assay (Method I b)
T5 construct: from tissue
T5 sequence (K7GSR7 1-457): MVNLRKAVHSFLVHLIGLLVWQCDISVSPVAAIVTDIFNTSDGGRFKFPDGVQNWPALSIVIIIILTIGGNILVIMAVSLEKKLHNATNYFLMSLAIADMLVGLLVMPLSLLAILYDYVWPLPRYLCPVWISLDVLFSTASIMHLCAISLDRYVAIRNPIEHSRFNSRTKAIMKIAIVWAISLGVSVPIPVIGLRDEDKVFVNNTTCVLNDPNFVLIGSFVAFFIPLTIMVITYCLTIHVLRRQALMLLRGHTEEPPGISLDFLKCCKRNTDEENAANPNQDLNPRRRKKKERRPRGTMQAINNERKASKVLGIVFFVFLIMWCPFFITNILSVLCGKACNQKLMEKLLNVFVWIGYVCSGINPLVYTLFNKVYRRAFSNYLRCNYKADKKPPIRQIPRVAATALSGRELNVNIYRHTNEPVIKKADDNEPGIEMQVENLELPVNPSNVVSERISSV
Method: as §2
b) For the binding to the 5HT2C receptor in accordance with the ^3 H-mesulergine binding assay according to the method of A. Pazos et al., Europ. J. Pharmacol. 106, 539-546 or. D. Hoyer, Receptor Research 8, 59-81 (1988).

[6] = rat, sc, 0.75 h, read-out: ED50
[7] = 5HT2C, [3H]-5-HT, Method II, read-out: pki, test method b (converted)
[8] = human 5HT1A, [3H]-5-HT (1 nM), 3T3 cell membranes, Method II, read-out: pki, test method a (converted)

| Compound | Ki (5HT2C receptor [1]) | Ki (5HT2A receptor [2]) | Ki (human-5HT1A receptors) | ED50 (5HT2C receptor [3]; [6]) | IC50 (5HT1A receptor) | IC50 (5HT2A receptor [4]) | IC50 (5HT2C receptor [5]) | ED50 (5HT2C receptor [3]) | Ki (5HT2C receptor [1]; [7]) | Ki (human-5HT1A receptors; [8]) |
| --- | --- | --- | --- | --- | --- | --- | --- | --- | --- | --- |
| Cc1ccc2c(c1)-c1c(ccn1C[C@H](C)N)C2(C)C.O=C(O)/C=C/C(=O)O [Example 1, (S)-2-(4,4,7-trimethyl-1,4-dihydro-indeno[1,2-b]pyrrol-1-yl)-1-methyl-ethylamine fumarate (1:1)] | 3.24 nM | 53.7 nM | 2190 nM | 0.9 mg/kg |  |  |  |  |  |  |
| COc1ccc2c(c1)-c1c(ccn1C[C@H](C)N)C2(C)C.O=C(O)/C=C/C(=O)O [Example 2, (S)-2-(7-methoxy-4,4-dimethyl-1,4-dihydro-indeno[1,2-b]pyrrol-1-yl)-1-methyl-ethylamine fumarate (1:1)] | 0.363 nM | 9.33 nM | 4070 nM | 0.5 mg/kg |  |  |  |  |  |  |
| COc1ccc2c(c1)-c1c(ccn1C[C@H](C)N)C2 [Example 3, (S)-2-(7-methoxy-1,4-dihydro-indeno[1,2-b]pyrrol-1-yl)-1-methyl-ethylaminefumarate (1:0.5)] | 6.92 nM | 75.9 nM |  | 1.2 mg/kg | 2830 nM | 2160 nM | 11.4 nM |  |  |  |
| C[C@H](N)Cn1ccc2c1-c1cc(Cl)ccc1C2 [Example 4, (S)-2-(7-chloro-1,4-dihydro-indeno[1,2-b]pyrrol-1-yl)-1-methyl-ethylamine fumarate (1:0.5)] |  |  |  | 2.7 mg/kg | 3230 nM | 2170 nM | 49.3 nM |  |  |  |
| COc1ccc2c(c1)-c1c(ccn1C[C@H](C)N)CC2.O=C(O)/C=C/C(=O)O [Example 5, (S)-2-(4,5-dihydro-8-methoxy-1H-benz[g]indol-1-yl)-1-methyl-ethylamine fumarate (1:1)] |  |  |  |  | 2560 nM | 591 nM | 20.2 nM | 3.20 mg/kg, s.c. |  |  |
| C[C@H](N)Cn1ccc2c1-c1cc(F)ccc1C2(C)C [Example 9, (S)-2-(7-fluoro-4,4-dimethyl-1,4-dihydro-indeno[1,2-b]pyrrol-1-yl)-1-methyl-ethylamine fumarate (1:1)] | 5.13 nM | 34.7 nM | 2750 nM |  |  |  |  |  |  |  |
| CCC1(CC)c2ccc(OC)cc2-c2c1ccn2C[C@H](C)N [Example 12, (S)-2-(7-methoxy-4,4-diethyl-1,4-dihydro-indeno[1,2-b]pyrrol-1-yl)-1-methyl-ethylamine fumarate (1:0.5)] |  | 115 nM | 10000 nM |  |  |  |  |  | 10 nM |  |
| C[C@H](N)Cn1ccc2c1-c1cc(-c3ccccc3)ccc1C2 [Example 14, (S)-2-(7-phenyl-1,4-dihydro-indeno[1,2-b]pyrrol-1-yl)-1-methyl-ethylamine fumarate (1:0.5)] | 16.6 nM | 24 nM |  |  |  |  |  |  |  | 10000 nM |
| CCc1ccc2c(c1)-c1c(ccn1C[C@H](C)N)C2 [Example 17, (S)-2-(7-ethyl-1,4-dihydro-indeno[1,2-b]pyrrol-1-yl)-1-methyl-ethylamine fumarate (1:0.5)] | 18.2 nM | 562 nM |  |  |  |  |  |  |  | 10000 nM |
| C[C@H](N)Cn1ccc2c1-c1cc(F)c(F)cc1C2 [Example 25, (S)-2-(6,7-difluoro-1,4-dihydro-indeno[1,2-b]pyrrol-1-yl)-1-methyl-ethylamine fumarate (1:1)] |  | 550 nM | 10000 nM |  |  |  |  |  | 41.7 nM |  |
| COc1cc2c(cc1Cl)C(C)(C)c1ccn(C[C@H](C)N)c1-2 [Example 26, (S)-2-(6-chloro-7-methoxy-4,4-dimethyl-1,4-dihydro-indeno[1,2-b]pyrrol-1-yl)-1-methyl-ethylamine fumarate (1:1)] |  | 67.6 nM | 5620 nM |  |  |  |  |  | 26.3 nM |  |
| Cc1ccc2c(c1)-c1c(ccn1C[C@H](C)N)C21CCCC1 [Example 44, (S)-1-methyl-2-(7'-methyl-1',4'-dihydro-spiro[cyclopentane]-1,4'-indeno[1,2-b]pyrrol-1-yl)-ethylamine fumarate (1:1)] | 79.4 nM | 269 nM |  |  |  |  |  |  |  | 1860 nM |
